Assay results published in patent publication US20250136619A1, “HETEROBIFUNCTIONAL COMPOUNDS AND THEIR USE IN TREATING DISEASE” (HALDA THERAPEUTICS OPCO, INC., priority 2021, published 2025).
Read-outs that look alike come from different tables or passages of the source.

How the values were obtained:
[1] = target: BTK (Homo sapiens (Human), UniProt Q06187); experiment: KdELECT assay for binding affinity to BTK
Description: Compounds were tested using a KdELECT assay. Kinase-tagged T7 phage strains were prepared in an E. coli host derived from the BL21 strain. E. coli were grown to log-phase and infected with T7 phage and incubated with shaking at 32° C. until lysis. The lysates were centrifuged and filtered to remove cell debris. The remaining kinases were produced in HEK-293 cells and subsequently tagged with DNA for qPCR detection. Streptavidin-coated magnetic beads were treated with biotinylated small molecule ligands for 30 minutes at room temperature to generate affinity resins for kinase assays. The liganded beads were blocked with excess biotin and washed with blocking buffer (SeaBlock (Pierce), 1% BSA, 0.05% Tween 20, 1 mM DTT) to remove unbound ligand and to reduce non-specific binding. Binding reactions were assembled by combining kinases, liganded affinity beads, and test compounds in 1× binding buffer (20% SeaBlock, 0.17×PBS, 0.05% Tween 20, 6 mM DTT). Test compounds were prepared as 111X stocks in 100% DMSO. Kd values were determined using an 11-point 3-fold compound dilution series with three DMSO control points. All compounds for Kd measurements are distributed by acoustic transfer (non-contact dispensing) in 100% DMSO. The compounds were then diluted directly into the assays such that the final concentration of DMSO was 0.9%. All reactions performed in polypropylene 384-well plate. Each was a final volume of 0.02 mL. The assay plates were incubated at room temperature with shaking for 1 hour and the affinity beads were washed with wash buffer (1×PBS, 0.05% Tween 20). The beads were then re-suspended in elution buffer (1×PBS, 0.05% Tween 20, 0.5 μM nonbiotinylated affinity ligand) and incubated at room temperature with shaking for 30 minutes. The kinase concentration in the eluates was measured by qPCR.

[2] = tested on: HEK293 cells; experiment: Cellular growth inhibition assay (CellTiter-Glo), HEK293 cells; format: cell-based; conditions: Homo sapiens, read-out: CTG HEK293 GI50
Description: (§1) HEK293 and HeLa cells were cultured in DMEM medium supplemented with 10% fetal bovine serum and 1% Penn/Strep. Cells were seeded in white 384-well plates at 500 cells/well in […] complete medium. Following seeding, plates were spun at 300×g for three minutes and cultured at 37° C. with 5% CO2 in a humidified tissue culture incubator.
(§2) After 24 hours, compounds were titrated in 100% DMSO and diluted in complete cell culture medium. […] of compound/media mixture was added to cells to bring total volume in well to […]. DMSO alone was used as a negative control. Plates were then spun at 300×g for three minutes and stored at 37° C. with 5% CO2 for three days.
(§3) On Day 0 and Day 3 of compound treatment, cell viability was quantified with CellTiter-Glo 2.0 reagent (Promega). After equilibrating microplates at room temperature for 30 minutes, 25 μL CellTiter-Glo 2.0 reagent was dispensed into each well to bring total volume to […]. Plates were mixed on shaker for 2 minutes at 500 rpm, followed by a 10-minute incubation at room temperature. Following a quick spin, luminescence readings were measured with an En Vision Plate Reader. Data was normalized to DMSO treated Day 0 and Day 3 readings. A four-parameter non-linear regression curve fit was applied to dose-response data in GraphPad Prism data analysis software to determine the half maximal growth inhibitory concentration (GI50) for each compound.

[3] = tested on: HeLa cells; experiment: Cellular growth inhibition assay (CellTiter-Glo), HeLa cells; format: cell-based; conditions: Homo sapiens, 72 h, read-out: CTG HELA GI50
Description: as §1, §2, §3

[4] = 72 h, HEK293 cells, three days of compound treatment, CellTiter-Glo 2.0
[5] = HeLa cells, three days of compound treatment, CellTiter-Glo 2.0

Sequence of BTK (Q06187 whole entry): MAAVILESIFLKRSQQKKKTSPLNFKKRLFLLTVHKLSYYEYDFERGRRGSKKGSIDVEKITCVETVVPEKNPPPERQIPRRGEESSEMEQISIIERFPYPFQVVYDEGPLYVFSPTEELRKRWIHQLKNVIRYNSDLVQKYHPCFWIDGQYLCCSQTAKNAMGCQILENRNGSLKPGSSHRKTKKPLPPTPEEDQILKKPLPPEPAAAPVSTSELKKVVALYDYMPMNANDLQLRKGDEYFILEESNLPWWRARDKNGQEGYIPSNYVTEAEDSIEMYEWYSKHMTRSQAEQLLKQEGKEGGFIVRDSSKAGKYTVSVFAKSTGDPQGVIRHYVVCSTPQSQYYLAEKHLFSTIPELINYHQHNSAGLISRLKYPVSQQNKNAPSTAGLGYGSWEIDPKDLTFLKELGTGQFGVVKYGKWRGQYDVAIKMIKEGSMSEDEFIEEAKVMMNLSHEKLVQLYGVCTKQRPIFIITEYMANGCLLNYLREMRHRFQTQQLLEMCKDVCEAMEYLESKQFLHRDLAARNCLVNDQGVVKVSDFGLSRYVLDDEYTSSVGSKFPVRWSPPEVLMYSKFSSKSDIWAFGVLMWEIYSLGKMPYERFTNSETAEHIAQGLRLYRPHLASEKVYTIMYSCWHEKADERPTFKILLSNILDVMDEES

| SMILES | Kd [1] [nM] | GI50 [3, 5] [nM] | GI50 [2, 4] [nM] | other results |
| --- | --- | --- | --- | --- |
| CC[C@@H]1C(=O)N(C)c2cnc(Nc3ccc(C(=O)NCCCCCCCCOC/C=C/C(=O)N4CCC[C@@H](n5nc(-c6ccc(Oc7ccccc7)cc6)c6c(N)ncnc65)C4)cc3OC)nc2N1C1CCCC1 [Compound I-36, N-[8-[(E)-4-[(3R)-3-[4-amino-3-(4-phenoxyphenyl)pyrazolo[3,4-d]pyrimidin-1-yl]-1-piperidyl]-4-oxo-but-2-enoxy]octyl]-4-[[(7R)-8-cyclopentyl-7-ethyl-5-methyl-6-oxo-7H-pteridin-2-yl]amino]-3-methoxy-benzamide] | 50 to 500 | – | – | – |
| CC[C@@H]1C(=O)N(C)c2cnc(Nc3ccc(C(=O)NCCOCCOCCOCCOCCOCCOCCOC/C=C/C(=O)N4CCC[C@@H](n5nc(-c6ccc(Oc7ccccc7)cc6)c6c(N)ncnc65)C4)cc3OC)nc2N1C1CCCC1 [Compound I-39, N-[2-[2-[2-[2-[2-[2-[2-[(E)-4-[(3R)-3-[4-amino-3-(4-phenoxyphenyl)pyrazolo[3,4-d]pyrimidin-1-yl]-1-piperidyl]-4-oxo-but-2-enoxy]ethoxy]ethoxy]ethoxy]ethoxy]ethoxy]ethoxy]ethyl]-4-[[(7R)-8-cyclopentyl-7-ethyl-5-methyl-6-oxo-7H-pteridin-2-yl]amino]-3-methoxy-benzamide] | < 50 | – | – | – |
| CC(C)(C)c1[nH]cnc1/C=c1\[nH]c(=O)/c(=C/c2ccccc2)n(CCOCCOCC(=O)N2CC(=O)N(c3cc(C#N)ccn3)[C@H](C(=O)N(c3cc(F)cc(F)c3)[C@H](C(=O)NC3CC(F)(F)C3)c3ccccc3Cl)C2)c1=O [Compound I-109, (2S)-4-[2-[2-[2-[(2Z,5Z)-2-benzylidene-5-[(5-tert-butyl-1H-imidazol-4-yl)methylene]-3,6-dioxo-piperazin-1-yl]ethoxy]ethoxy]acetyl]-N-[(1S)-1-(2-chlorophenyl)-2-[(3,3difluorocyclobutyl)amino]-2-oxo-ethyl]-1-(4-cyano-2-pyridyl)-N-(3,5-difluorophenyl)-6-oxo-piperazine-2-carboxamide] | – | – | – | GI50 ([2]; HEK293, 72 h): > 5000 nM; GI50 ([3]; HeLa): > 5000 nM |
| CC(C)(C)c1[nH]cnc1/C=c1\[nH]c(=O)/c(=C/c2ccccc2)n(CCOCCOCCOCCOCC(=O)N2CC(=O)N(c3cc(C#N)ccn3)[C@H](C(=O)N(c3cc(F)cc(F)c3)[C@H](C(=O)NC3CC(F)(F)C3)c3ccccc3Cl)C2)c1=O [Compound I-110, (2S)-4-[2-[2-[2-[2-[2-[(2Z,5Z)-2-benzylidene-5-[(5-tert-butyl-1 H-imidazol-4-yl)methylene]-3,6-dioxo-piperazin-1-yl]ethoxy]ethoxy]ethoxy]ethoxy]acetyl]-N-[(1S)-1-(2-chlorophenyl)-2-[(3,3-difluorocyclobutyl)amino]-2-oxo-ethyl]-1-(4-cyano-2-pyridyl)-N-(3,5-difluorophenyl)-6-oxo-piperazine-2-carboxamide] | – | > 5000 | > 5000 | – |
| C[C@@H](Nc1ccc(C#N)n(C)c1=O)c1cc2cc(Cl)c(C3CC(OCCOCCOCCOCCOCCN(C)C(=O)N4N=C(c5cc(F)ccc5F)SC4(CCCN)c4ccccc4)C3)cc2[nH]c1=O (stereo partly drawn) [Compound I-111, 2-(3-aminopropyl)-N-[2-[2-[2-[2-[2-[3-[6-chloro-3-[(1R)-1-[(6-cyano-1-methyl-2-oxo-3-pyridyl)amino]ethyl]-2-oxo-1H-quinolin-7-yl]cyclobutoxy]ethoxy]ethoxy]ethoxy]ethoxy]ethyl]-5-(2,5-difluorophenyl)-N-methyl-2-phenyl-1,3,4-thiadiazole-3-carboxamide] | – | 500 to 1500 | 1500 to 5000 | – |

Continued, in another order:

| Kd [1] [nM] | GI50 [3, 5] [nM] | SMILES | GI50 [2, 4] [nM] | other results |
| --- | --- | --- | --- | --- |
| 500 to 2500 | – | NC(=O)c1c(F)cccc1Nc1nc(Nc2ccc(S(=O)(=O)NCCCCCCCC/C=C/C(=O)N3CCC[C@@H](n4nc(-c5ccc(Oc6ccccc6)cc5)c5c(N)ncnc54)C3)cc2)ncc1Br [Compound I-17] | – | – |
| 50 to 500 | – | CC[C@@H]1C(=O)N(C)c2cnc(Nc3ccc(C(=O)NCCOCCOCCOC/C=C/C(=O)N4CCC[C@@H](n5nc(-c6ccc(Oc7ccccc7)cc6)c6c(N)ncnc65)C4)cc3OC)nc2N1C1CCCC1 [Compound I-37, N-[2-[2-[2-[(E)-4-[(3R)-3-[4-amino-3-(4-phenoxyphenyl)pyrazolo[3,4-d]pyrimidin-1-yl]-1-piperidyl]-4-oxo-but-2-enoxy]ethoxy]ethoxy]ethyl]-4-[[(7R)-8-cyclopentyl-7-ethyl-5-methyl-6-oxo-7H-pteridin-2-yl]amino]-3-methoxy-benzamide] | – | – |
| – | 500 to 1500 | CCS(=O)(=O)Nc1ccc(Oc2cccc(OCCOCCOCC(=O)N3CC(=O)N(c4cc(C#N)ccn4)[C@H](C(=O)N(c4cc(F)cc(F)c4)[C@H](C(=O)NC4CC(F)(F)C4)c4ccccc4Cl)C3)c2)c(-c2cn(C)c(=O)c3[nH]ccc23)c1 [Compound I-107, (2S)—N-[(1S)-1-(2-chlorophenyl)-2-[(3,3-difluorocyclobutyl)amino]-2-oxo-ethyl]-1-(4-cyano-2-pyridyl)-N-(3,5-difluorophenyl)-4-[2-[2-[2-[3-[4-(ethylsulfonylamino)-2-(6-methyl-7-oxo-1H-pyrrolo[2,3-c]pyridin-4-yl)phenoxy]phenoxy]ethoxy]ethoxy]acetyl]-6-oxo-piperazine-2-carboxamide] | > 5000 | – |
| – | < 500 | CCS(=O)(=O)Nc1ccc(Oc2cccc(OCCOCCOCCOCCOCC(=O)N3CC(=O)N(c4cc(C#N)ccn4)[C@H](C(=O)N(c4cc(F)cc(F)c4)C(C(=O)NC4CC(F)(F)C4)c4ccccc4Cl)C3)c2)c(-c2cn(C)c(=O)c3[nH]ccc23)c1 (stereo partly drawn) [Compound I-108, (2S)—N-[1-(2-chlorophenyl)-2-[(3,3-difluorocyclobutyl)amino]-2-oxo-ethyl]-1-(4-cyano-2-pyridyl)-N-(3,5-difluorophenyl)-4-[2-[2-[2-[2-[2-[3-[4-(ethylsulfonylamino)-2-(6-methyl-7-oxo-1 H-pyrrolo[2,3-c]pyridin-4-yl)phenoxy]phenoxy]ethoxy]ethoxy]ethoxy]ethoxy]acetyl]-6-oxo-piperazine-2-carboxamide] | > 5000 | – |
| – | 500 to 1500 | CN(CCNS(=O)(=O)c1cc(F)cc(N(C(=O)[C@@H]2CCC(=O)N2c2cc(C#N)ccn2)[C@H](C(=O)NC2CC(F)(F)C2)c2ccccc2Cl)c1)C(=O)N1N=C(c2cc(F)ccc2F)SC1(CCCN)c1ccccc1 (stereo partly drawn) [Compound I-112, 2-(3-aminopropyl)-N-[2-[[3-[[(1S)-1-(2-chlorophenyl)-2-[(3,3-difluorocyclobutyl)amino]-2-oxo-ethyl]-[(2S)-1-(4-cyano-2-pyridyl)-5-oxo-pyrrolidine-2-carbonyl]amino]-5-fluoro-phenyl]sulfonylamino]ethyl]-5-(2,5-difluorophenyl)-N-methyl-2-phenyl-1,3,4-thiadiazole-3-carboxamide] | 1500 to 5000 | – |
| – | > 5000 | CN(CCNS(=O)(=O)c1cc(F)cc(N(C(=O)[C@@H]2CCC(=O)N2c2cc(C#N)ccn2)[C@@H](C(=O)NC2CC(F)(F)C2)c2ccccc2Cl)c1)C(=O)N1N=C(c2cc(F)ccc2F)SC1(CCCN)c1ccccc1 (stereo partly drawn) [Compound I-113, 2-(3-aminopropyl)-N-[2-[[3-[[(1R)-1-(2-chlorophenyl)-2-[(3,3-difluorocyclobutyl)amino]-2-oxo-ethyl]-[(2S)-1-(4-cyano-2-pyridyl)-5-oxo-pyrrolidine-2-carbonyl]amino]-5-fluoro-phenyl]sulfonylamino]ethyl]-5-(2,5-difluorophenyl)-N-methyl-2-phenyl-1,3,4-thiadiazole-3-carboxamide] | > 5000 | – |
| – | 1500 to 5000 | CN(CCOCCOCCNS(=O)(=O)c1cc(F)cc(N(C(=O)[C@@H]2CCC(=O)N2c2cc(C#N)ccn2)C(C(=O)NC2CC(F)(F)C2)c2ccccc2Cl)c1)C(=O)N1N=C(c2cc(F)ccc2F)SC1(CCCN)c1ccccc1 (stereo partly drawn) [Compound I-114, 2-(3-aminopropyl)-N-[2-[2-[2-[[3-[[1-(2-chlorophenyl)-2-[(3,3-difluorocyclobutyl)amino]-2-oxo-ethyl]-[(2S)-1-(4-cyano-2-pyridyl)-5-oxo-pyrrolidine-2-carbonyl]amino]-5-fluoro-phenyl]sulfonylamino]ethoxy]ethoxy]ethyl]-5-(2,5-difluorophenyl)-N-methyl-2-phenyl-1,3,4-thiadiazole-3-carboxamide] | > 5000 | – |
